Experiment: Caco-2 permeability
Format: in vitro ADME
Settings: human

Papp: 0.171 ×10⁻⁶ cm/s
Structure (SMILES): O=C(Nc1cn[nH]c1-c1ccccn1)c1nn(C2CCNCC2)cc1Cl [BDP5290, 4-chloro-1-(4-piperidyl)-N-[5-(2-pyridyl)-1H-pyrazol-4-yl]pyrazole-3-carboxamide]

Source: publication PMC4195943, “A novel small-molecule MRCK inhibitor blocks cancer cell invasion” (Cell Communication and Signaling : CCS, 2014)
